Measurements from PMC4949444 (Scientific Reports, 2016).

Columns and labels:
[1] = target: T1, PPARγ (Homo sapiens, UniProt P37231); assay: biochemical; assay type: binding
T1 construct: purchased Life Technologies
T1 sequence (P37231 232-505 limits assumed): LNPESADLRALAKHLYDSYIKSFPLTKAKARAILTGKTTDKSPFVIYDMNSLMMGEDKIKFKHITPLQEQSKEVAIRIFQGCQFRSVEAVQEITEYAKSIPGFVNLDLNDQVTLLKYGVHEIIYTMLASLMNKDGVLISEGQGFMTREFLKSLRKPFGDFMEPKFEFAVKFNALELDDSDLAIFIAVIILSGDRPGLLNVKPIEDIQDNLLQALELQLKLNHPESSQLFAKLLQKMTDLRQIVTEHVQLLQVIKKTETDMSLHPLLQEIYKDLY
Method: The indicated concentrations were tested and results were plotted to obtain the polynomial trend on a logarithmic range. […] HEK293 cells were co-transfected with GAL4-PPARγ and GAL4-luc and incubated with the indicated compound concentrations for 6 hours prior to luciferase activity determination. Results are expressed as the fold induction ± S.D. relative to untreated control. […] All experiments are shown as mean ± S.D. from at least three independent experiments.
To determine PPARγ binding activity the PolarScreen^TM PPAR Competitor Assay kit (Life Technologies, CA, USA) was used following the manufacturer’s instructions. […] To study PPARγ transcriptional activity HEK293 cells were seeded in 24-well plates and transiently co-transfected with the expression vector GAL4-PPARγ and the luciferase reporter vector GAL4-luc using Roti-Fect (Carl Roth, Karlsruhe, Germany) following the manufacturer’s instructions. To correct for transfection efficacy, 100 ng Renilla luciferase (pRL-CMV) was also cotransfected. After stimulation, the luciferase activities were quantified using Dual-Luciferase Assay (Promega, Madison, WI, USA).

[2] = system: Human mesenchymal stem cells (MSC); assay: Adipogenic differentiation of human mesenchymal stem cells; assay type: cell-based
Description: Figure 2 Effect of VCE-003.2 on adipogenic differentiation. Human mesenchymal stem cells (MSC) were differentiated in adipogenic medium (AM) in the presence of RZG or […] VCE-003.2 and adipogenic markers were characterized. (a) Quantification of oil red (ORO) positive cells after 21 days of differentiation. (b) Representative images of accumulated fat vesicles stained with oil red (Bar size, 50 μm). (c) Gene expression of PPAR-γ2, LPL, CEBPA, ADIPOQ and FABP4 in MSCs differentiated during 18 days. Data represent the percentage of increase over AM considered as the 100% of adipogenic induction. Experiments were performed from three different human MSC preparations each one obtained from a different bone marrow sample.
Reina Sofia University Hospital review board.

[3] = system: 3NP-lesioned C57BL/6 mice; assay: 3-nitropropionic acid (3NP) model of Huntington's disease; assay type: in vivo; conditions: for COX-2 (2expΔΔct) / IL-6 (2expΔΔct) / TNF-α (2expΔΔct): striatum mRNA; for % GSH / % SOD activity / %Catalase activity: striatum
Method: Figure 7 VCE-003.2 is neuroprotective in 3NP-intoxicated mice. (a) Behavioural score was determined 12 hours after 3NP intoxication. Mice were treated with VCE-003.2 (20 mg/Kg) alone or combined with T0070907 (5 mg/kg) as indicated. Animals were also treated separately with either VCE-003.2 or T0070907 alone. Hind limb clasping, general locomotor activity, hind limb dystonia and kyphosis were rated from 0 to 2 based on severity (score 0 indicates normal function and 2 indicates the most severe affected function). Values are expressed as means ± SEM (n = 6). (b) Representative images of Nissl staining performed on coronal striatal brain sections from the same mice groups. Photomicrographs of NeuN (Bar size, 50 μm) Iba-1 and glial fibrillary acidic protein (GFAP) immunostained sections through the different group of mice are also shown. (c) Quantification of the different markers was performed with Image J software. Total average number of neurons (NeuN^+), microglia (Iba1^+) and astrocytes (GFAP^+) is shown. Values are expressed as means ± SEM (n = 6). *p < 0.05, **p < 0.01, ***p < 0.001 vs. Vehicle; ^#p < 0.05, ^##p < 0.01, ^###p < 0.001 vs. 3NP; †p < 0.05, ^††p < 0.01, ^†††p < 0.001 vs. the 3NP + VCE-003.2 group.
Mice were housed under standard conditions (12-h light/dark cycle) in groups with access to food and water ad libitum. All experiments were performed in accordance with European Union guideline and approved by the Animal Research Ethic Committee of Córdoba University (2014PI/017) (3NP model) and by the Animal Research Ethic Committee of Complutense University (CEA-UCM 73/2012) (QA model). Procedures were designed to minimize the number of animals used and their suffering. Excitotoxicity was induced by intrastriatal quinolinic acid (QA) administration (100 nmol in 1 μL PBS solution, unilaterally) as previously described[41] at the following coordinates: +0.6 posterior to bregma, +1.85 medio-lateral and -2.7 dorso-ventral to dura, in 12-week-old CD1 male mice (Harlan Ibérica, Barcelona, Spain). Pharmacological manipulation with VCE-003.2 (10 mg/kg body weight) was performed i.p. daily in 2% Tween 20 and 3% DMSO in saline buffer until sacrifice. Control animals received the corresponding vehicle injections. Motor function was assessed by RotaRod analysis conducted with acceleration from 4 to 40 rpm over a period of 570 s in an LE8200 device (Harvard Apparatus, Barcelona, Spain). […] 3NP-treated animals and their respective non-lesioned controls (injected with PBS) were used for pharmacological studies with VCE-003.2. Treatments consisted of 4 i.p. injections every 24 h with 20 mg/kg VCE-003.2 or vehicle (4% DMSO plus 6,2% Tween 20 in saline buffer), with the first and the last injections 30 min before the first and the last injections of 3NP, respectively. In some experiments, mice received a combination of VCE-003.2 and the PPARγ antagonist T0070907 (5 mg/kg) injected 15 minutes before VCE-003.2. In 3NP-lesioned mice, motor activity, hindlimb clasping, dystonia, and truncal dystonia were evaluated following previously described procedures. All behavioural tests were conducted prior to drug injections to avoid acute effects of the compounds under investigation and all animals were euthanized 12 h after the last injection of 3NP and their brains removed. The right hemispheres were used to dissect the striatum which was frozen in RNAlater (Sigma-Aldrich) and stored at −80 °C for biochemical analyses. The left hemispheres were fixed in fresh 4% paraformaldehyde (in 0.1 M PBS) for 48 h at 4 °C and embedded in paraffin wax for staining and immunohistochemical analysis. In all experiments, at least 6 animals were used per experimental group.
Free floating coronal brain slices ([…]) were processed as previously described. […]

[4] = 3NP-lesioned mice, + T0070907 5 mg/kg
[5] = 3NP-treated mice, VCE-003.2 20 mg/kg
[6] = 3NP-treated mice, VCE-003.2 20 mg/kg + T0070907 5 mg/kg
[7] = substance alone, mean ± SEM n=6
[8] = 3NP-treated mice, VCE-003.2 20 mg/kg, % of vehicle control
[9] = substance alone, % of vehicle-treated control

CCCCCC1=C(NCC)C(=O)C(C/C=C(\C)CCC=C(C)C)=C(O)C1=O [VCE-003.2]
IC50 [1]: 1.2 µM | percentage of Oil Red O positive cells ([2]; 1 and 2.5 μM vs 1 μM RZG, adipogenic medium, 21 days): never achieved the percentage of Oil Red O positive cells (ORO^+) induced by RZG | lipid droplets (morphological examination) ([2]; compared to RZG): lipid droplets are less numerous and smaller | expression of adipogenic differentiation markers PPARγ, LPL, CEBPA, ADIPOQ, FABP4 ([2]; compared to cells treated with RZG): sensibly lower | loss of Nissl and NeuN+ cells in striatum ([3]; 3NP-lesioned mice, 20 mg/kg): rescued the loss of Nissl and NeuN^+-cells | microgliosis and astrogliosis (Iba1, GFAP) ([3]; 3NP-lesioned mice, 20 mg/kg): reduced 3NP-induced microgliosis and astrogliosis | motor deficits: hindlimb clasping, dystonia, kyphosis ([3]; 3NP-lesioned mice, 20 mg/kg i.p.): improved the motor deficits of 3NP-lesioned mice by reducing hindlimb clasping, dystonia and kyphosis | effect on motor deficits with PPARγ antagonist co-administered [3, 4]: abrogated | neuroprotective activity (Nissl, NeuN) with T0070907 co-administered [3, 4]: prevented the activity of VCE-003.2 | behavioural score, substance alone ([3]; mice given the substance alone): Neither VCE-003.2 nor T0070907 alone influenced the behavior of the animals | COX-2 (2expΔΔct) [3, 5]: 2.7 ± 0.07^### 2expΔΔct | IL-6 (2expΔΔct) [3, 5]: 1.79 ± 0.2^### 2expΔΔct | TNF-α (2expΔΔct) [3, 5]: 1.56 ± 0.576^## 2expΔΔct | COX-2 (2expΔΔct) [3, 6]: 8.91 ± 1^† 2expΔΔct | IL-6 (2expΔΔct) [3, 6]: 8.18 ± 2.9 2expΔΔct | TNF-α (2expΔΔct) [3, 6]: 3.83 ± 1.17 2expΔΔct | COX-2 (2expΔΔct) [3, 7]: 1.31 ± 0.75 2expΔΔct | IL-6 (2expΔΔct) [3, 7]: 1.14 ± 0.65 2expΔΔct | TNF-α (2expΔΔct) [3, 7]: 1.15 ± 058 2expΔΔct | % GSH [3, 6]: 121.48 ± 15.29% | % SOD activity [3, 6]: 121.46 ± 37.04% | %Catalase activity [3, 6]: 89.08 ± 5.7% | % GSH [3, 8]: 111.7 ± 12.6% | % SOD activity [3, 8]: 221.18 ± 26.91^# % | %Catalase activity [3, 8]: 88.82 ± 6.75^# % | % GSH [3, 9]: 101.81 ± 14.59% | % SOD activity [3, 9]: 115.62 ± 27.34% | %Catalase activity [3, 9]: 99.05 ± 6.1%
